Laboratory results taken from patent EP0450065A1, “ANTIVIRAL AGENT” (priority 1988, dated 1990).
Where “and” joins values, the source holds several entries; their conditions need not be identical. Equal values may be shown once. Read-outs that look alike come from different tables or passages of the source.

Columns and labels:
[1] = tested on: herpes simplex virus type 1 (HF strain); test: 50% Tissue culture infective dose (TCID50), Read-Munch method, negative logarithm of virus dilution; type: cell-based
Method: In vitro antiviral activity of Compound A against herpes simplex virus type 1 (HF strain) Compound A was tested for antiviral effect by the following two methods.
(§1) The amount of virus infecting 50% of tissues (TCID₅₀) was determined by the Read-Munch method and expressed in negative logarithm of the maximum radio of dilution of virus. The difference of the amount thus determined from the amount found in the control (omitting the treatment with a chemical) was reported as ΔTCID₅₀. A sample whose ΔCPE's found on the last day of observation and on each of the days spent for the observation exceeded 1.0 was evaluated as effective.
In vitro antiviral effect of Compound A against herpes simplex virus type 1 (HF strain) The test was carried out by following the procedure of Example 3.

[2] = tested on: herpes simplex virus type 2 (169 strain); test: as above; type: cell-based; set-up: key to Cytopathic effect [CPE] (5days) △TCID50 / Cytopathic effect [CPE] (6days) △TCID50 / Cytopathic effect [CPE] (3days) △TCID50: difference in -log TCID50 from untreated control; key to Cytopathic effect [CPE] (5days) TCID50 / Cytopathic effect [CPE] (3days) TCID50 / Cytopathic effect [CPE] (6days) TCID50: negative log of maximum virus dilution infecting 50% of tissues; conditions: HSV-2 (169); for log reduction at 100 µg/mL / Cytopathic effect [CPE] (3days) △TCID50 / Cytopathic effect [CPE] (5days) △TCID50 / Cytopathic effect [CPE] (6days) △TCID50: difference from control
Method: as §1
In vitro antiviral activity of Compound A against herpes simplex virus type 2 (169 strain) The test was carried out by following the procedure of Example 3.

thymidine kinase [TK(v)] = thymidine kinase [TK(v)] (Human herpesvirus 1, UniProt P0DTH5); conditions: viral versus cellular thymidine kinase; cited from earlier work
Sequence of thymidine kinase [TK(v)] (P0DTH5 whole entry): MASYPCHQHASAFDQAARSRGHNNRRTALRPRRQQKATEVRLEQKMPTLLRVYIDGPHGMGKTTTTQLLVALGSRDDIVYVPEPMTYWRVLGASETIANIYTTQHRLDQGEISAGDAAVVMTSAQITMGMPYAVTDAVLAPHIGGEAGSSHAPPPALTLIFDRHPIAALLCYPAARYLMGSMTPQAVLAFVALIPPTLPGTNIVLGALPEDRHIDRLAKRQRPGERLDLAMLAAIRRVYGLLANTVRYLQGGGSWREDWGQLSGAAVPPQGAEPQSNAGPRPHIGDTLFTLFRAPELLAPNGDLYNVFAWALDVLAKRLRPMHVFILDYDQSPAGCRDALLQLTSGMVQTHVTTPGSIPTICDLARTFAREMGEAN

vero cells [3] = conditions: african green monkey
Method: Compound A and Compound B were severally dissolved in distilled water in a concentration of 5 mg/ml, to prepare master solutions. Each of the master solutions was suitably diluted with an Eagle's MEM culture medium containing 10% fetal bovine serum. A 0.2-ml portion of the resultant dilution product was placed on vero cells cultured in advance on a microplate and grown in a monolayer, cultured further thereon at 37°C for three to five days. Samples taken severally after three days'and five days'culture were placed under a microscope and tested for cytopathogenic effect brought about by a chemical agent.

vero cells [4] = conditions: control ratio on propagation of vero cells, 72hr
Method: Samples of the control group contained 0.1 ml of a culture solution (an Eagle's MEM culture medium containing 10% fetal bovine serum).
The test was conducted by using three culture tubes per group, culturing the cells in the tubes at 37°C for three days, and taking count of live cells by the dye-exclusion method.

[5] = 100 μg/ml, HSV-1 (HF strain), Example 5
[6] = 100 μg/ml, HSV-1 (HF), Example 3
[7] = 5 μg/ml, HSV-1 (HF), Example 3, difference from control
[8] = 10 μg/ml, HSV-1 (HF), Example 3
[9] = 10 μg/ml, HSV-1 (HF), Example 3, difference from control
[10] = 20 μg/ml, HSV-1 (HF), Example 3
[11] = 20 μg/ml, HSV-1 (HF), Example 3, difference from control
[12] = 50 μg/ml, HSV-1 (HF), Example 3
[13] = 50 μg/ml, HSV-1 (HF), Example 3, difference from control
[14] = 100 μg/ml, HSV-1 (HF strain), Example 5, difference from control
[15] = 100 μg/ml, HSV-1 (HF), Example 3, difference from control
[16] = 200 μg/ml, HSV-1 (HF strain), Example 5
[17] = 200 μg/ml, HSV-1 (HF strain), Example 5, difference from control

Nc1nc2c(ncn2COCCO)c(=O)[nH]1 [ACV, acyclovir, reference compound]
Cytopathic effect [CPE] (3days) TCID50 [1, 5]: 5.5
Cytopathic effect [CPE] (6days) TCID50 [1, 5]: 4.3
Cytopathic effect [CPE] (3days) TCID50 [1, 6]: 3.5
Cytopathic effect [CPE] (5days) TCID50 [1, 6]: 3.5
log reduction at 100 µg/mL ([1]; Human alphaherpesvirus 1, 72 h, read-out: Cytopathic effect [CPE] (3days) ΔTCID50): 0.8
log reduction at 100 µg/mL ([1]; Human alphaherpesvirus 1, 72 h, 100 μg/ml, HSV-1 (HF), Example 3, difference from control, read-out: Cytopathic effect [CPE] (3days) △TCID50): 2.5
log reduction at 100 µg/mL ([1]; Human alphaherpesvirus 1, 120 h, 100 μg/ml, HSV-1 (HF), Example 3, difference from control, read-out: Cytopathic effect [CPE] (5days) △TCID50): 2.5
log reduction at 100 µg/mL ([1]; Human alphaherpesvirus 1, 144 h, read-out: Cytopathic effect [CPE] (6days) ΔTCID50): 2
Cytopathic effect [CPE] (3days) TCID50 ([2]; 100 μg/ml, Example 4): 3.5
Cytopathic effect [CPE] (5days) TCID50 ([2]; 100 μg/ml, Example 4): 3.5
Cytopathic effect [CPE] (3days) TCID50 ([2]; 100 μg/ml, Example 6): < 3.5
Cytopathic effect [CPE] (6days) TCID50 ([2]; 100 μg/ml, Example 6): 3.5
log reduction at 100 µg/mL ([2]; Human alphaherpesvirus 2, 72 h, read-out: Cytopathic effect [CPE] (3days) △TCID50, 100 μg/ml, Example 4): 3
log reduction at 100 µg/mL ([2]; Human alphaherpesvirus 2, 72 h, read-out: Cytopathic effect [CPE] (3days) △TCID50, 100 μg/ml, Example 6): > 3.2
log reduction at 100 µg/mL ([2]; Human alphaherpesvirus 2, 120 h, read-out: Cytopathic effect [CPE] (5days) △TCID50, 100 μg/ml, Example 4): 3
log reduction at 100 µg/mL ([2]; Human alphaherpesvirus 2, 144 h, read-out: Cytopathic effect [CPE] (6days) △TCID50, 100 μg/ml, Example 6): 3.2
affinity for TK(v) as for TK(c) (thymidine kinase [TK(v)]): more than 200 times

K₅BW₁₂O₄₀.15H₂O [Compound A]
Cytopathic effect [CPE] (3days) TCID50 ([1]; 5 μg/ml, HSV-1 (HF), Example 3): 5.5
Cytopathic effect [CPE] (5days) TCID50 ([1]; 5 μg/ml, HSV-1 (HF), Example 3): 5.7
Cytopathic effect [CPE] (3days) △TCID50 [1, 7]: 0.5
Cytopathic effect [CPE] (5days) △TCID50 [1, 7]: 0.3
Cytopathic effect [CPE] (3days) TCID50 [1, 8]: 5.7
Cytopathic effect [CPE] (5days) TCID50 [1, 8]: 5.7
Cytopathic effect [CPE] (3days) △TCID50 [1, 9]: 0.3
Cytopathic effect [CPE] (5days) △TCID50 [1, 9]: 0.3
Cytopathic effect [CPE] (3days) TCID50 [1, 10]: 5.7
Cytopathic effect [CPE] (5days) TCID50 [1, 10]: 5.7
Cytopathic effect [CPE] (3days) △TCID50 [1, 11]: 0.3
Cytopathic effect [CPE] (5days) △TCID50 [1, 11]: 0.3
Cytopathic effect [CPE] (3days) TCID50 [1, 12]: 5.7
Cytopathic effect [CPE] (5days) TCID50 [1, 12]: 5.7
Cytopathic effect [CPE] (3days) △TCID50 [1, 13]: 0.3
Cytopathic effect [CPE] (5days) △TCID50 [1, 13]: 0.3
Cytopathic effect [CPE] (3days) TCID50 [1, 5]: 4.7
Cytopathic effect [CPE] (6days) TCID50 [1, 5]: 5.0
Cytopathic effect [CPE] (3days) ΔTCID50 [1, 14]: 1.6
Cytopathic effect [CPE] (6days) ΔTCID50 [1, 14]: 1.3
Cytopathic effect [CPE] (3days) TCID50 [1, 6]: 5.3
Cytopathic effect [CPE] (5days) TCID50 [1, 6]: 5.3
Cytopathic effect [CPE] (3days) △TCID50 [1, 15]: 0.7
Cytopathic effect [CPE] (5days) △TCID50 [1, 15]: 0.3
Cytopathic effect [CPE] (3days) TCID50 [1, 16]: <3.5
Cytopathic effect [CPE] (6days) TCID50 [1, 16]: <3.5
Cytopathic effect [CPE] (3days) ΔTCID50 [1, 17]: >2.8
Cytopathic effect [CPE] (6days) ΔTCID50 [1, 17]: > 2.8 and >2.5
ΔTCID₅₀ ([1]; varying concentrations of from 5 to 100 µg/ml, fifth day of observation, HSV-1 (HF), Example 3): 0.3
Cytopathic effect [CPE] (3days) TCID50 ([2]; 5 μg/ml, Example 4): 6.5
Cytopathic effect [CPE] (5days) TCID50 ([2]; 5 μg/ml, Example 4): 6.7
Cytopathic effect [CPE] (3days) △TCID50 ([2]; 5 μg/ml, Example 4): 0
Cytopathic effect [CPE] (5days) △TCID50 ([2]; 5 μg/ml, Example 4): 0.2
Cytopathic effect [CPE] (3days) TCID50 ([2]; 10 μg/ml, Example 4): 6.3
Cytopathic effect [CPE] (5days) TCID50 ([2]; 10 μg/ml, Example 4): 6.3
Cytopathic effect [CPE] (3days) △TCID50 ([2]; 10 μg/ml, Example 4): 0.2
Cytopathic effect [CPE] (5days) △TCID50 ([2]; 10 μg/ml, Example 4): 0.2
Cytopathic effect [CPE] (3days) TCID50 ([2]; 20 μg/ml, Example 4): 6.5
Cytopathic effect [CPE] (5days) TCID50 ([2]; 20 μg/ml, Example 4): 6.2
Cytopathic effect [CPE] (3days) △TCID50 ([2]; 20 μg/ml, Example 4): 0
Cytopathic effect [CPE] (5days) △TCID50 ([2]; 20 μg/ml, Example 4): 0.3
Cytopathic effect [CPE] (3days) TCID50 ([2]; 50 μg/ml, Example 4): 5.5
Cytopathic effect [CPE] (5days) TCID50 ([2]; 50 μg/ml, Example 4): 5.5
Cytopathic effect [CPE] (3days) △TCID50 ([2]; 50 μg/ml, Example 4): 1.0
Cytopathic effect [CPE] (5days) △TCID50 ([2]; 50 μg/ml, Example 4): 1.0
Cytopathic effect [CPE] (3days) TCID50 ([2]; 100 μg/ml, Example 4): 3.5
Cytopathic effect [CPE] (5days) TCID50 ([2]; 100 μg/ml, Example 4): 3.5
Cytopathic effect [CPE] (3days) △TCID50 ([2]; 100 μg/ml, Example 4): 3.0
Cytopathic effect [CPE] (5days) △TCID50 ([2]; 100 μg/ml, Example 4): 3.0
Cytopathic effect [CPE] (3days) TCID50 ([2]; 100 μg/ml, Example 6): < 3.5
Cytopathic effect [CPE] (6days) TCID50 ([2]; 100 μg/ml, Example 6): < 3.5
Cytopathic effect [CPE] (3days) △TCID50 ([2]; 100 μg/ml, Example 6): > 3.2
Cytopathic effect [CPE] (6days) △TCID50 ([2]; 100 μg/ml, Example 6): > 3.2
Cytopathic effect [CPE] (3days) TCID50 ([2]; 200 μg/ml, Example 6): < 3.5
Cytopathic effect [CPE] (6days) TCID50 ([2]; 200 μg/ml, Example 6): < 3.5
Cytopathic effect [CPE] (3days) △TCID50 ([2]; 200 μg/ml, Example 6): > 3.2
Cytopathic effect [CPE] (6days) △TCID50 ([2]; 200 μg/ml, Example 6): > 3.2
maximum nontoxic doses (MNTD) (vero cells [3]): > 200 µg/mL
Cellular toxity (3 days) Maximum nontoxic does (vero cells [3]; 72 h): >200 µg/mL
Cellular toxity (5 days) Maximum nontoxic does (vero cells [3]; 120 h): >200 µg/mL
Ratio (%) (vero cells [4]; 100 μg/ml): absolutely no effect
Ratio (%) (vero cells [4]; 200 μg/ml): absolutely no effect
